Results taken from patent US4132738A, “Preparation of 15-deoxy-16-hydroxyprostaglandins” (Miles Laboratories, Inc., priority 1978, dated 1979).

Tests used:
Conditions in all cases: comparison in words
[1] = tested on: blood pressure and heart rate in the anesthetized cat; assay: Effects on blood pressure and heart rate in the anesthetized cat; assay type: in vivo
Experimental: The acute effects of test compounds on blood pressure and heart rate were determined in cats of either sex anesthetized with a mixture of pentobarbital sodium (35 mg/kg, i.v.) and barbital sodium (100 mg/kg, i.v.). Cannulas were placed in the trachea to allow adequate spontaneous ventilation, in a femoral artery for blood pressure recording with a strain gage transducer, and in a saphenous vein for drug administration.
Heart rate was recorded by means of a cardiotachometer driven by the R wave of the electrocardiogram. After a period of 10 minutes of stable recordings of blood pressure and heart rate, the test compound was administered intravenously at doses increasing from 0.01 to 10.0 mcg/kg, spaced one log and injected at 10 minute intervals. All doses were injected in a volume of 0.1 ml/kg. Modifications of blood pressure and heart rate induced by the test compound were expressed both in absolute units (mmHg and beats/minute) and as percent of values recorded immediately before administration of each dose. Biphasic responses were tabulated in the order in which they occurred. […]
Activity of compounds in this test was judged only on the basis of the degree of hypotension observed. Thus, the ED50 mmHg (dose decreasing blood pressure by 50 mmHg) was calculated graphically, and the compound scored according to the following scale: […]

[2] = tested on: rat stomach, rat colon, chick rectum, and rabbit aorta; assay: Cascade assay, all four tissues; assay type: cell-based
Experimental: (§1) The smooth muscle stimulant effects of the test compounds were determined simultaneously in four different tissues that are known to be reactive to naturally occurring prostaglandins. Segments of rat stomach fundus, rat colon, chick rectum and rabbit aortic strip were obtained as described by: Vane, J. R., Brit. J. Pharmacol., 12: 344 (1957); Regoli, D. and Vane, J. R., Brit. J. Pharmacol., 23: 351 (1964); Mann, M. and West, G. B., Brit. J. Pharmacol., 5: 173 (1950); and Furchgott, R. F. and Bhadrakom, R., J. Pharmacol. Exper. Ther., 108: 129 (1953). One end of each preparation was tied to the bottom of a 10 ml tissue chamber and the other to a force displacement transducer (Grass FT-03) for continuous tension recording. The stomach, colon, and rectum segments were stretched to an initial tension of 1 g, while the aortic strip was subjected to 4 g. All preparations were left undisturbed for 1 hour prior to ptesting. The chambers were equipped with an external jacket through which water, maintained at 40° C., was circulated. […]
(§2) Test compounds were diluted from stock solutions so as to administer quantities ranging from 0.0001 to 100,000 ng in a volume of 0.5 ml. […] Maximal increases in tension after each dose were measured and the results were used to plot dose-response curves. […]
(§3) Activity in each tissue was scored according to the following scale: […]

rat stomach = assay: Cascade assay, rat stomach fundus in vitro; assay type: cell-based
Experimental: as §1, §2, §3

rat colon = assay: Cascade assay, rat colon in vitro; assay type: cell-based
Experimental: as §1, §2, §3

| SMILES | Feline blood pressure and heart rate value, methyl ester versus carbinol [1] | Cascade values, methyl ester versus carbinol [2] | Cascade stomache value, methyl ester versus carbinol (rat stomach) | Cascade colon value, methyl ester versus carbinol (rat colon) |
| --- | --- | --- | --- | --- |
| CCCCC(C)(O)C/C=C/[C@H]1[C@H](O)CC(=O)[C@@H]1CCCCCCC(=O)OC (stereo partly drawn) [TR 4704, Methyl 11α, 16RS-dihydroxy-16-methyl-9-oxoprost-13E-oate, reference compound] | significantly and undesirably higher | significantly and undesirably higher | – | – |
| CCCCC(O)C/C=C/[C@H]1[C@H](O)CC(=O)[C@@H]1CCCCCCC(=O)OC (stereo partly drawn) [TR 4705, Methyl 11α, 16RS-dihydroxy-9-oxoprost-13E-en-1-oate, reference compound] | – | – | higher | higher |
